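Cultured in 96-well plates, cells were exposed to test compound for 48 hours across five concentrations. GI50: concentration for 50% inhibition of growth. TGI is the concentration that stops growth completely.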
Columns and labels:
Assay in all cases: NCI-60 cell line screen, 48 h
A498 renal = test system: A498 renal
HCC-2998 colon = test system: HCC-2998 colon
HCT-15 colon = test system: HCT-15 colon
K-562 leukemia = test system: K-562 leukemia
M14 melanoma = test system: M14 melanoma
MDA-MB-231 breast = test system: MDA-MB-231 breast
SK-MEL-5 melanoma = test system: SK-MEL-5 melanoma
SK-OV-3 ovarian = test system: SK-OV-3 ovarian
UO-31 renal = test system: UO-31 renal
NCI-H522 lung = test system: NCI-H522 lung
OVCAR-3 ovarian = test system: OVCAR-3 ovarian

SMILES	TGI (A498 renal) [µM]	TGI (HCC-2998 colon) [µM]	TGI (HCT-15 colon) [µM]	TGI (K-562 leukemia) [µM]	TGI (M14 melanoma) [µM]	TGI (MDA-MB-231 breast) [µM]	TGI (SK-MEL-5 melanoma) [µM]	TGI (SK-OV-3 ovarian) [µM]	TGI (UO-31 renal) [µM]	TGI (NCI-H522 lung) [µM]	TGI (OVCAR-3 ovarian) [µM]	GI50 (HCC-2998 colon) [µM]	GI50 (HCT-15 colon) [µM]	GI50 (K-562 leukemia) [µM]	GI50 (M14 melanoma) [µM]	GI50 (MDA-MB-231 breast) [µM]	GI50 (SK-MEL-5 melanoma) [µM]	GI50 (SK-OV-3 ovarian) [µM]	GI50 (UO-31 renal) [µM]
O=C(/C=C/c1cccs1)c1ccc(Cl)s1	> 100	34.7	35.2	> 100	> 100	> 100	> 100	> 100	38.6	–	–	–	–	–	–	–	–	–	–
COc1cc2c(cc1O)-c1c(OC)c(O)cc3c1C(C2)N(C)CC3 (stereo not given)	> 100	–	> 100	–	> 100	> 100	> 100	> 100	> 100	> 100	> 100	–	–	–	–	–	–	–	–
Cc1n(CC(C)C)c2c([n+]1CC(=O)c1ccc([N+](=O)[O-])cc1)C(=O)c1ccccc1C2=O	2.21	1.18	15.6	1.33	–	–	< 0.0309	0.869	30.2	< 0.01	–	–	–	–	–	–	–	–	–
CCN(CC)CCNc1ccc2ncn3c4c(OC)ccc(=O)c4c(O)c1c23	–	> 100	> 100	> 100	> 100	> 100	> 39.6	> 100	> 100	> 39.7	> 100	–	–	–	–	–	–	–	–
O=C1CSC(c2ccccc2[N+](=O)[O-])N1c1ccc(-n2c(-c3ccccc3)nc3ccccc3c2=O)cc1 (stereo not given)	> 100	> 100	> 100	> 100	–	> 100	> 100	28.3	> 100	> 100	> 100	–	–	–	–	–	–	–	–
Cc1cn(CCCCOC(=O)NC(CCCNC(N)=O)C(=O)O)c(=O)[nH]c1=O (stereo not given)	–	> 100	> 100	> 100	> 100	> 100	–	> 100	> 100	–	> 100	–	–	–	–	–	–	–	–
CC1=C2c3ccccc3N(S(=O)(=O)c3ccccc3)[C@H]2[C@H](C(=O)N2C3CC4CC[C@@]3(CS2(=O)=O)C4(C)C)CC1 (stereo not given in full)	> 100	–	> 100	> 100	> 100	> 100	91.3	> 100	54	42.6	> 100	–	–	–	–	–	–	–	–
Oc1c2c(c3c4c1N=CC=4CCN=3)C1(C=C(Br)C(O)C(Br)=C1)CCN2 (stereo not given)	23.4	4.61	4.42	> 21	–	–	2.67	26	28	0.818	3.12	–	–	–	–	–	–	–	–
COC(=O)C1CCC[C@H]2C(CO)=C(C)C(=O)[C@@H]12 (stereo not given in full)	> 100	> 100	> 100	> 100	> 100	–	> 100	> 100	> 100	> 100	–	–	–	–	–	–	–	–	–
O=C1C(Cl)C(c2cccc(Br)c2)N1c1c(O)c(Cl)cc(Br)c1Cl (stereo not given)	–	23.2	19.3	37.1	27.1	46	27.2	55.8	40	30	36.1	–	–	–	–	–	–	–	–
Cc1cccc(Nc2nc(NNC(=O)Cc3ccccc3)nc(NNC(=O)c3ccncc3)n2)c1	–	> 10	> 10	–	> 10	> 10	> 10	> 10	> 10	> 10	–	–	–	–	–	–	–	–	–
C[N+]1(CCCC[N+]2(C)CCCCCCC2)CCCCCCC1	> 100	–	> 100	> 100	> 100	> 100	> 100	–	> 100	> 100	> 100	–	–	–	–	–	–	–	–
COc1cc(/C=C2/C(=O)N=C(NC(C)=O)N2C)ccc1OC(C)=O	–	> 100	> 100	–	> 100	> 100	> 100	> 100	> 100	–	> 100	–	–	–	–	–	–	–	–
c1ccc(C2=NN[C@H](c3cn(-c4ccccc4)nc3-c3ccccc3)C2)cc1	–	> 100	> 100	> 100	> 100	> 100	> 100	4.52	> 100	–	–	> 100	> 100	> 100	6.46	3.86	7.66	2.04	2.87
O=C(/C=C/c1ccc(O)cc1)c1cc(O)cc(O)c1	28.1	–	16.9	18.4	29.3	30.4	28.9	42.4	21.6	18.1	29.4	–	–	–	–	–	–	–	–
CCCCCCCSCC1OC(n2cnc3c(N)ncnc32)C(O)C1O (stereo not given)	32.4	66.9	22.7	> 100	48.5	–	30.8	–	–	–	–	–	–	–	–	–	–	–	–
Clc1ccc2c(Cl)nc(-c3ccccc3)nc2c1	> 100	> 100	–	> 100	–	–	82.4	62.3	> 100	–	50.1	–	–	–	–	–	–	–	–
COC(=O)C(CCSc1ccccc1)C(=O)OC	> 100	> 100	> 100	–	> 100	> 100	> 100	> 100	> 100	> 100	> 100	–	–	–	–	–	–	–	–
COc1cc(O)c2c(c1O)C(=O)c1cc(C)ncc1C2=O	> 50	> 50	> 50	> 50	> 50	–	30	35.7	42.5	> 50	45.9	–	–	–	–	–	–	–	–
C=CCOCn1ccc(NC(=O)c2ccccc2)nc1=O	> 100	> 100	> 100	> 100	> 100	> 100	> 100	> 100	> 100	> 100	–	–	–	–	–	–	–	–	–
COC(=O)C1=C(OC(=O)/C(=C/c2c(F)cccc2F)c2ccccc2)C(C(=O)OC)[C@@]2(O)[C@@H](C(=O)OC)[C@H](C)C[C@@H]1[C@@H]2C(=O)OC (stereo not given in full)	–	–	> 100	> 100	> 100	> 100	–	> 100	8.26	> 100	> 100	–	–	–	–	–	–	–	–
CCCCCCCCCCCCCCCCNc1ccc2c(c1)OCCOCCOCCOCCO2	–	–	13.5	10.7	13.5	11.9	5.22	9.49	8.88	8.68	8.75	–	–	–	–	–	–	–	–
COC(=O)c1cn(CCCCO)nn1	–	> 100	> 100	–	–	> 100	> 100	–	> 100	–	–	–	–	–	–	–	–	–	–

SMILES	TGI (A498 renal) [µM]	TGI (HCC-2998 colon) [µM]	TGI (HCT-15 colon) [µM]	TGI (K-562 leukemia) [µM]	TGI (M14 melanoma) [µM]	TGI (MDA-MB-231 breast) [µM]	TGI (SK-MEL-5 melanoma) [µM]	TGI (SK-OV-3 ovarian) [µM]	TGI (UO-31 renal) [µM]	TGI (NCI-H522 lung) [µM]	TGI (OVCAR-3 ovarian) [µM]	GI50 (HCC-2998 colon) [µM]	GI50 (HCT-15 colon) [µM]	GI50 (K-562 leukemia) [µM]	GI50 (M14 melanoma) [µM]	GI50 (MDA-MB-231 breast) [µM]	GI50 (SK-MEL-5 melanoma) [µM]	GI50 (SK-OV-3 ovarian) [µM]	GI50 (UO-31 renal) [µM]
Cc1ccc(N=Nc2c(C)nn(C(=O)CC(=O)Nc3ccc(Cl)cc3)c2C)cc1C	> 100	> 100	–	–	> 100	> 100	> 100	51.2	> 100	> 100	> 100	–	–	–	–	–	–	–	–
O=C(Nc1ccc(N2C(=O)CSC2c2cccs2)cc1)c1ccc(N2C(=O)CSC2c2cccs2)cc1 (stereo not given)	–	> 100	> 100	> 100	> 100	> 100	> 100	> 100	> 100	> 100	> 100	–	–	–	–	–	–	–	–
Cc1nc2ccc(S(=O)(=O)Nc3ccccc3Cl)cc2c(=O)n1NC(=O)CNc1ccccc1Cl	–	> 100	> 100	> 100	> 100	> 100	–	> 100	> 100	> 100	> 100	–	–	–	–	–	–	–	–
CCOC(=O)NC(C(C(=O)OCC)C(=O)OCC)(C(F)(F)F)C(F)(F)F	> 100	–	> 100	> 100	> 100	> 100	> 100	–	> 100	> 100	> 100	–	–	–	–	–	–	–	–
NN/C(=N\S(=O)(=O)c1cccc2nsnc12)Nc1ccc(Cl)cc1	> 100	–	> 100	> 100	> 100	> 100	> 100	> 100	> 100	–	> 100	–	–	–	–	–	–	–	–
Nc1ccc(-c2nc3ccc(Cc4ccc5nc(-c6ccc(N)cc6)oc5c4)cc3o2)cc1	> 100	> 100	> 100	> 100	> 100	> 100	–	> 100	> 100	> 100	–	–	–	–	–	–	–	–	–
CN(C)C(=O)C(F)(F)C(c1ccc(C(F)(F)F)cc1)C1C(=O)N(C)C(=O)N(C)C1=O (stereo not given)	> 100	> 100	> 100	–	> 100	> 100	> 100	> 100	> 100	–	> 100	–	–	–	–	–	–	–	–
Nc1ccn(CC(CO)CC(c2ccccc2)P(=O)(O)O)c(=O)n1 (stereo not given)	> 100	> 100	> 100	> 100	> 100	–	> 100	> 100	> 100	> 100	> 100	–	–	–	–	–	–	–	–
Cc1ccc(C2SC(N)=Nc3c2c(C)nn3C(=O)c2ccc(Cl)cc2)cc1 (stereo not given)	–	> 10	> 10	> 10	> 10	> 10	> 10	> 10	–	> 10	> 10	–	–	–	–	–	–	–	–
C=CCN1C[C@@H](C)N([C@@H](c2ccccc2)c2ccc(C(=O)N(CC)CC)cc2)C[C@@H]1C	> 100	–	> 100	–	> 100	> 100	> 100	> 100	> 100	> 100	> 100	–	–	–	–	–	–	–	–
ClCCCC1COc2ccccc2O1 (stereo not given)	–	> 100	> 100	> 100	> 100	–	> 100	> 100	> 100	> 100	> 100	–	–	–	–	–	–	–	–
CCN(CC)CCOCC1CCCN2CCCCC12 (stereo not given)	–	> 100	> 100	> 100	> 100	> 100	> 100	> 100	> 100	–	> 100	–	–	–	–	–	–	–	–
COc1ccc(/C(Cl)=C(\CNc2ccccn2)c2ccccc2)cc1OC	> 100	> 100	> 100	> 100	–	> 100	> 100	> 100	> 100	> 100	–	–	–	–	–	–	–	–	–
O=C1CCCCCCCCCCC1CN(Cc1ccccc1)Cc1ccccc1 (stereo not given)	–	85.8	> 100	> 100	> 100	> 100	32.4	> 100	> 100	> 100	> 100	–	–	–	–	–	–	–	–
COc1ccc(N2C(=O)C3c4[nH]c5cc(Cl)ccc5c4C4CCC(C(C)(C)C)CC4C3C2=O)cc1 (stereo not given)	–	> 100	> 100	> 100	> 100	> 100	> 100	> 100	> 100	> 100	> 100	–	–	–	–	–	–	–	–
CC1=C(c2ccc(C)cc2)NC(=S)C(C)C(c2ccc(C)cc2)=N1 (stereo not given)	> 100	> 100	> 100	> 100	–	> 100	> 100	> 100	> 100	–	–	–	–	–	–	–	–	–	–
C=CCN(c1cc(OCc2ccccc2)c2c(c1)c(C)cn2S(=O)(=O)c1ccccc1)S(C)(=O)=O	–	> 100	> 100	> 100	> 100	> 100	> 100	> 100	–	> 100	> 100	–	–	–	–	–	–	–	–
N#Cc1nc(C2SCCCS2)oc1N	> 100	–	> 100	> 100	> 100	> 100	> 100	> 100	–	–	–	–	–	–	–	–	–	–	–
Cc1cccc2c(N)c3cccc(C(=O)NCCN4CCOCC4)c3nc12	5	> 100	6.39	–	7.33	4.55	2.46	16.9	8.26	1.86	16.9	–	–	–	–	–	–	–	–
CCCC(=O)[O-].CCCC(=O)[O-].N.N.N.N.[Co+3].[O-][Cl+3]([O-])([O-])[O-]	> 100	> 100	> 100	> 100	> 100	–	> 100	> 100	> 100	> 100	> 100	–	–	–	–	–	–	–	–
COc1cc(S(=O)(=O)Nc2ccc(-c3csc(/N=C\C=C\c4ccccc4)n3)cc2)ccc1Cl	50.5	> 100	> 100	> 100	> 100	–	> 100	> 100	> 100	> 100	> 100	–	–	–	–	–	–	–	–
CCN(CC)c1nc(=O)c(C(=O)C(C)(C)C)c(C(C)(C)C)o1	> 100	> 100	> 100	> 100	> 100	> 100	> 100	> 100	–	> 100	–	–	–	–	–	–	–	–	–
